Laboratory results: patent publication US8796281B2, “Lighting device having at least one heat sink” (Jinan University, priority 2010, dated 2014)
“Also recorded” adds a separate entry of the source.

Assays:
aging accelerated mice = details: intraperitoneally injected daily; cited from earlier work
24-month-old rats = details: cited from earlier work
[1] = in vivo; cited from earlier work
PC12 cells = assay: Cytoprotection of PC12 cells against t-BHP-induced damage (MTT); assay type: cell-based, rats; details: t-BHP 200 μM, FIG. 3
Experimental: PC12 cells were inoculated in a 96-well plate of strong adsorption with 90 μL per well, cultured for 36 hrs in an incubator set at 37° C. and 5% CO2. After 36 hrs, each of the drugs was added in four concentration gradients. Cultured for half an hour in an incubator set at 37° C. and 5% CO2, replaced with serum-free medium, t-BHP ([…], final concentration of 200 μM) was added in each of the wells except the well of the control. Then the material was placed and cultured in an incubator for 24 hrs. The cells were cultured for 24 hrs, and MTT (15 μL, 5 mg/mL) was added in each of the wells. The material was cultured in an incubator for 4 hrs, and then DMSO ([…]) was added in each of the wells to be further incubated for at least half an hour to ensure the crystals were completely dissolved. The absorbance (A value) was measured by using a micro-plate reader at 570 nm.

Dopaminergic neurons = assay: Cytoprotection on injuries of dopaminergic neurons induced by MPP+; assay type: cell-based; details: 500 μM, 50 μM and 5 μM, MPP+ 10 μM, FIG. 5
Experimental: Dopaminergic neurons were cultured for 5 days, and L-Deprenyl, TMP and TN-2 were added in a concentration gradient of 500 μM, 50 μM and 5 μM respectively. Two hours later, MPP^+(with a final concentration of 10 μM) was added into each of the wells except those of the control.

[2] = system: rats with ischemia caused by MCAo; assay: Protection of rats having cerebral ischemia caused by MCAO (TTC, extent of cerebral infarction); assay type: in vivo; details: 65 mg/kg intravenously 1 hr after ischemia, 2 hrs ischemia, 24 hrs reperfusion, FIG. 4
Experimental: Anesthesia was performed on rats (female SD rats, in body weight of 260-300 g) with intraperitoneal injection of 10% hydrated chloral hydrate in a dose of 400 mg/kg or with inhalation of 3.5% halothane. At the entrance of MCAO (Middle Cerebral Artery Occlusion Ischemia) was blocked with a nylon wire to cause cerebral ischemia. After ischemia occurred for 1 hr, the rats were respectively intravenously injected with EDA (63 mg/kg), TBN (80 mg/kg), TN-2 (65 mg/kg), and saline (control group). There were 6 rats in each group. After ischemia occurred for 2 hrs, the nylon wires were removed, and reperfusion was performed for 24 hrs. Brain tissues were taken and the cerebellums were removed. The material was rinsed in PBS solution, and put in a freezer set at −20° C. for a moment, and the brain tissues were cut into slices with a thickness of about 2 mm, and immediately placed in a solution of 0.5% triphenyltetrazolium chloride (TTC). Incubation was performed at 37° C. for 30 minutes. The extent of cerebral infarction was evaluated. […] In FIG. 4, the data were examined by one-tailed t-test; the mark “*” refers to the data in comparison with the control; drug dosage: TBN (80 mg/kg), and Edaravone (63 mg/kg); and each of the drugs were used in equal molarity.

[3] = 32 mg/kg intraperitoneally daily for 9.5 months

CC(C)(C)/[N+]([O-])=C/c1ccccc1 [PBN, Phenyl-tert-Butyl Nitrones]
increase in the lifespan of the mice (aging accelerated mice): 33% | cognitive ability for older rats (24-month-old rats; [3]): enhanced | lipid peroxidation reactions in cerebral cortex and globus pallidus (24-month-old rats; [3]): diminished | rats still alive (24-month-old rats; when the experiment was run for 32 months): 7 of the 11

Cc1nc(C)c(C)nc1C [TMP, Tetramethylpyrazine]
bioavailability [1]: low

Cc1nc(/C=[N+](/[O-])C(C)(C)C)c(C)nc1/C=[N+](/[O-])C(C)(C)C [TN-2]
cytoprotection towards the t-BHP-induced cell damage (PC12 cells; 24 hrs, MTT absorbance at 570 nm): significant effect of cytoprotection; also recorded: significant protective effects | intensity of the cytoprotective effect compared with TMP (PC12 cells): significantly higher than that of TMP | cytoprotection to the MPP+-induced cell damage (Dopaminergic neurons): significant | treatment effects on stroke of the rats (extent of cerebral infarction) [2]: significant treatment effects
